According to the NIST ThermoML archive (doi:10.1016/j.fluid.2009.02.010):
± gives the expanded uncertainty stated by the source.

Experiments:
[1] = refractive index (Na D-line) (dimensionless); settings: 298.15 K; 101.33 kPa; Liquid; Standard Abbe refractometry
[2] = Liquid, Ebulliometric method (Recirculating still)

C1CCCCC1 [cyclohexane]
refractive index [1]: 1.4235 ± 0.0007

C=C(C)CC(C)(C)C [2,4,4-trimethyl-1-pentene]
refractive index [1]: 1.4062 ± 0.0007

C=CCCCC [hex-1-ene]
refractive index [1]: 1.3849 ± 0.0007

Cc1ccccc1C [1,2-dimethylbenzene]
refractive index [1]: 1.5028 ± 0.0007

Cc1ccsc1 [3-methylthiophene]
vapor or sublimation pressure ([2]; 333.15 K): 15.43 ± 0.35 kPa
vapor or sublimation pressure ([2]; 341.98 K): 21.8 ± 0.35 kPa
vapor or sublimation pressure ([2]; 350.79 K): 30.23 ± 0.36 kPa
vapor or sublimation pressure ([2]; 359.01 K): 40.33 ± 0.37 kPa
vapor or sublimation pressure ([2]; 365.62 K): 50.31 ± 0.38 kPa
vapor or sublimation pressure ([2]; 371.73 K): 61.23 ± 0.39 kPa
vapor or sublimation pressure ([2]; 376.26 K): 70.53 ± 0.4 kPa
vapor or sublimation pressure ([2]; 380.53 K): 80.35 ± 0.42 kPa
vapor or sublimation pressure ([2]; 384.69 K): 91 ± 0.43 kPa
vapor or sublimation pressure ([2]; 387.89 K): 100.02 ± 0.44 kPa
refractive index [1]: 1.5172 ± 0.0007

CC(C)CC(C)(C)C [2,2,4-trimethylpentane]
refractive index [1]: 1.3889 ± 0.0007
